From US11065269B1, “Method of using astaxanthin for the treatment of diseases, and more particularly, the treatment of cancer” (priority 2018, dated 2021)

Legend:
[1] = increasing astaxanthin levels in the diet (experiments conducted with the invention); assay type: in vivo
Procedure: In experiments conducted with the present invention, it is been shown that increasing astaxanthin levels in the diet can be used as a pre-cancer, cancer and anti-inflammatory prophylactic at levels up to 400 mg per day.

[2] = relative to betacarotene; cited from earlier work
[3] = cited from earlier work
[4] = oral; cited from earlier work

## CC1=C(/C=C/C(C)=C/C=C/C(C)=C/C=C/C=C(C)/C=C/C=C(C)/C=C/C2=C(C)C(=O)[C@@H](O)CC2(C)C)C(C)(C)C[C@H](O)C1=O [astaxanthin]
[1]; dietary levels up to 400 mg per day
  side effects: No discernible side effects
[1]; treatment of greater than 50 mg per day
  side effects or skin color changes: No side effects or skin color changes were observed
[1]; up to 400 mg per day, from unabsorbed astaxanthin
  feces colour: some decolorization of feces
[1]; within four weeks of treatment of greater than 50 mg per day
  anti-inflammatory effect and pain reduction associated with arthritis: Anti-inflammatory and pain reduction associated with arthritis were noted
[2]
  times more reactive as an antioxidant than betacarotene: 400 times
[3]; relative to CoQ10
  singlet oxygen quenching, times stronger than CoQ10: 800 times
[3]; relative to vitamin C
  singlet oxygen quenching, times stronger than vitamin C: 6000 times
[3]; relative to vitamin E
  singlet oxygen quenching, times stronger than vitamin E: 550 times
[4]
  toxic side effects: No toxic side effects have been observed
